From PubChem BioAssay (NCI)
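Briefly, cells in 96-well plates were exposed to five compound concentrations for 48 h, and endpoints were estimated by linear interpolation. TGI is the concentration that stops growth completely.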

Key:
Test in all cases: DTP human tumour cell line panel, 48 h
LOX IMVI melanoma = system: LOX IMVI melanoma
COLO 205 colon = system: COLO 205 colon
ACHN renal = system: ACHN renal
U251 CNS = system: U251 CNS
HCT-15 colon = system: HCT-15 colon
A498 renal = system: A498 renal
MDA-N = system: MDA-N
EKVX NSCLC = system: EKVX NSCLC
MDA-MB-231 breast = system: MDA-MB-231 breast
SF-295 CNS = system: SF-295 CNS
SF-539 CNS = system: SF-539 CNS
DU-145 prostate = system: DU-145 prostate
KM12 colon = system: KM12 colon
MDA-MB-435 = system: MDA-MB-435
HT29 colon = system: HT29 colon
M14 melanoma = system: M14 melanoma
MCF7 breast = system: MCF7 breast
HOP-92 NSCLC = system: HOP-92 NSCLC
SK-OV-3 ovarian = system: SK-OV-3 ovarian
A549 NSCLC = system: A549 NSCLC
SK-MEL-28 melanoma = system: SK-MEL-28 melanoma
UO-31 renal = system: UO-31 renal
SW-620 colon = system: SW-620 colon
OVCAR-4 ovarian = system: OVCAR-4 ovarian
NCI-H23 lung = system: NCI-H23 lung
PC-3 prostate = system: PC-3 prostate
OVCAR-5 ovarian = system: OVCAR-5 ovarian
NCI/ADR-RES ovarian = system: NCI/ADR-RES ovarian
SK-MEL-2 melanoma = system: SK-MEL-2 melanoma
UACC-62 melanoma = system: UACC-62 melanoma
OVCAR-8 ovarian = system: OVCAR-8 ovarian
SK-MEL-5 melanoma = system: SK-MEL-5 melanoma
786-0 renal = system: 786-0 renal
UACC-257 melanoma = system: UACC-257 melanoma
SN12C renal = system: SN12C renal
HOP-62 NSCLC = system: HOP-62 NSCLC
SNB-75 CNS = system: SNB-75 CNS
MALME-3M melanoma = system: MALME-3M melanoma
HCT-116 colon = system: HCT-116 colon
NCI-H460 lung = system: NCI-H460 lung
CAKI-1 renal = system: CAKI-1 renal
SF-268 CNS = system: SF-268 CNS
CCRF-CEM leukemia = system: CCRF-CEM leukemia
NCI-H226 lung = system: NCI-H226 lung
IGROV1 ovarian = system: IGROV1 ovarian
K-562 leukemia = system: K-562 leukemia
TK-10 renal = system: TK-10 renal
HCC-2998 colon = system: HCC-2998 colon
MOLT-4 leukemia = system: MOLT-4 leukemia
HL-60(TB) leukemia = system: HL-60(TB) leukemia
SNB-19 CNS = system: SNB-19 CNS
HS 578T breast = system: HS 578T breast
NCI-H522 lung = system: NCI-H522 lung
RXF 393 renal = system: RXF 393 renal
BT-549 breast = system: BT-549 breast
OVCAR-3 ovarian = system: OVCAR-3 ovarian
RPMI-8226 leukemia = system: RPMI-8226 leukemia
T-47D breast = system: T-47D breast

With Cc1csc2nc(-c3ccc(Cl)c([N+](=O)[O-])c3)c(/C=N/N=C(N)N)n12 as the compound, how does the TGI (LOX IMVI melanoma) read?
Its TGI is 2.97 µM.

What about the TGI (COLO 205 colon) of the same compound?
The TGI was 2.37 µM.

And the TGI (ACHN renal)?
The TGI was 2.94 µM.

What about the TGI (U251 CNS) of the same compound?
The TGI was 2.97 µM.

What about the TGI (HCT-15 colon) of the same compound?
Its TGI is 3.02 µM.

What about the TGI (A498 renal) of the same compound?
The TGI was 2.85 µM.

What about the TGI (MDA-N) of the same compound?
The TGI was 2.69 µM.

And the TGI (EKVX NSCLC)?
Its TGI is 2.93 µM.

What about the TGI (MDA-MB-231 breast) of the same compound?
Its TGI is 3.68 µM.

What about the TGI (SF-295 CNS) of the same compound?
The TGI was 2.78 µM.

What about the TGI (SF-539 CNS) of the same compound?
Its TGI is 2.98 µM.

And the TGI (DU-145 prostate)?
Its TGI is 4.86 µM.

What about the TGI (KM12 colon) of the same compound?
The TGI was 4.75 µM.

And the TGI (MDA-MB-435)?
Its TGI is 3.13 µM.

And the TGI (HT29 colon)?
The TGI was 3.26 µM.

And the TGI (M14 melanoma)?
The TGI was 3.38 µM.

And the TGI (MCF7 breast)?
The TGI was 3.67 µM.

And the TGI (HOP-92 NSCLC)?
Its TGI is 1.38 µM.

And the TGI (SK-OV-3 ovarian)?
The TGI was 3.24 µM.

What about the TGI (A549 NSCLC) of the same compound?
The TGI was 3.54 µM.

What about the TGI (SK-MEL-28 melanoma) of the same compound?
The TGI was 3.45 µM.

What about the TGI (UO-31 renal) of the same compound?
Its TGI is 2.33 µM.

And the TGI (SW-620 colon)?
The TGI was 1.35 µM.

What about the TGI (OVCAR-4 ovarian) of the same compound?
Its TGI is 3.4 µM.

And the TGI (NCI-H23 lung)?
The TGI was 3.29 µM.

What about the TGI (PC-3 prostate) of the same compound?
Its TGI is 2.81 µM.

What about the TGI (OVCAR-5 ovarian) of the same compound?
The TGI was 2.55 µM.

And the TGI (NCI/ADR-RES ovarian)?
The TGI was 5.95 µM.

What about the TGI (SK-MEL-2 melanoma) of the same compound?
The TGI was 2.48 µM.

And the TGI (UACC-62 melanoma)?
The TGI was 3.3 µM.

And the TGI (OVCAR-8 ovarian)?
The TGI was 1.57 µM.

And the TGI (SK-MEL-5 melanoma)?
The TGI was 2.94 µM.

What about the TGI (786-0 renal) of the same compound?
Its TGI is 2.93 µM.

And the TGI (UACC-257 melanoma)?
Its TGI is 1.82 µM.

And the TGI (SN12C renal)?
Its TGI is 3.68 µM.

And the TGI (HOP-62 NSCLC)?
The TGI was 3.41 µM.

What about the TGI (SNB-75 CNS) of the same compound?
Its TGI is 3.37 µM.

And the TGI (MALME-3M melanoma)?
The TGI was 4.38 µM.

What about the TGI (HCT-116 colon) of the same compound?
The TGI was 3.97 µM.

Fc1ccccc1C1SCc2nc3cc4ccccc4cc3n21 (stereo not drawn) was tested. Which TGI (NCI-H460 lung) did it give?
The TGI was > 100 µM.

What about the TGI (CAKI-1 renal) of the same compound?
Its TGI is > 100 µM.

What about the TGI (COLO 205 colon) of the same compound?
Its TGI is > 100 µM.

What about the TGI (ACHN renal) of the same compound?
The TGI was > 100 µM.

And the TGI (U251 CNS)?
Its TGI is > 100 µM.

And the TGI (SF-268 CNS)?
Its TGI is > 100 µM.

What about the TGI (CCRF-CEM leukemia) of the same compound?
Its TGI is > 100 µM.

What about the TGI (HCT-15 colon) of the same compound?
Its TGI is > 100 µM.

And the TGI (NCI-H226 lung)?
Its TGI is > 100 µM.

And the TGI (IGROV1 ovarian)?
Its TGI is > 100 µM.

What about the TGI (MDA-N) of the same compound?
The TGI was > 100 µM.

What about the TGI (K-562 leukemia) of the same compound?
Its TGI is > 100 µM.

What about the TGI (EKVX NSCLC) of the same compound?
Its TGI is > 100 µM.

What about the TGI (MDA-MB-231 breast) of the same compound?
The TGI was > 100 µM.

What about the TGI (SF-295 CNS) of the same compound?
The TGI was > 100 µM.

What about the TGI (TK-10 renal) of the same compound?
Its TGI is > 100 µM.

What about the TGI (DU-145 prostate) of the same compound?
The TGI was > 100 µM.

What about the TGI (KM12 colon) of the same compound?
The TGI was > 100 µM.

And the TGI (HCC-2998 colon)?
The TGI was > 100 µM.

What about the TGI (MDA-MB-435) of the same compound?
Its TGI is > 100 µM.

What about the TGI (HT29 colon) of the same compound?
The TGI was > 100 µM.

And the TGI (M14 melanoma)?
The TGI was > 100 µM.

And the TGI (MCF7 breast)?
The TGI was > 100 µM.

And the TGI (SK-OV-3 ovarian)?
The TGI was > 100 µM.

What about the TGI (MOLT-4 leukemia) of the same compound?
The TGI was > 100 µM.

What about the TGI (HL-60(TB) leukemia) of the same compound?
Its TGI is > 100 µM.

And the TGI (A549 NSCLC)?
The TGI was > 100 µM.

What about the TGI (SNB-19 CNS) of the same compound?
The TGI was > 100 µM.

And the TGI (SK-MEL-28 melanoma)?
Its TGI is > 100 µM.

And the TGI (UO-31 renal)?
Its TGI is > 100 µM.

What about the TGI (HS 578T breast) of the same compound?
The TGI was 96.4 µM.

And the TGI (SW-620 colon)?
Its TGI is > 100 µM.

And the TGI (OVCAR-4 ovarian)?
The TGI was > 100 µM.

What about the TGI (NCI-H522 lung) of the same compound?
Its TGI is > 100 µM.

What about the TGI (NCI-H23 lung) of the same compound?
Its TGI is > 100 µM.

And the TGI (PC-3 prostate)?
The TGI was > 100 µM.

And the TGI (OVCAR-5 ovarian)?
The TGI was > 100 µM.

And the TGI (RXF 393 renal)?
Its TGI is 80.1 µM.

And the TGI (NCI/ADR-RES ovarian)?
The TGI was > 100 µM.

And the TGI (SK-MEL-2 melanoma)?
The TGI was > 100 µM.

And the TGI (BT-549 breast)?
Its TGI is > 100 µM.

And the TGI (UACC-62 melanoma)?
The TGI was > 100 µM.

And the TGI (OVCAR-8 ovarian)?
Its TGI is > 100 µM.

What about the TGI (SK-MEL-5 melanoma) of the same compound?
Its TGI is > 100 µM.

And the TGI (786-0 renal)?
The TGI was 51.5 µM.

And the TGI (UACC-257 melanoma)?
The TGI was > 100 µM.

What about the TGI (SN12C renal) of the same compound?
Its TGI is > 100 µM.

What about the TGI (OVCAR-3 ovarian) of the same compound?
The TGI was > 100 µM.

And the TGI (HOP-62 NSCLC)?
Its TGI is > 100 µM.

And the TGI (RPMI-8226 leukemia)?
Its TGI is > 100 µM.

And the TGI (SNB-75 CNS)?
Its TGI is > 100 µM.

What about the TGI (MALME-3M melanoma) of the same compound?
Its TGI is > 100 µM.

What about the TGI (HCT-116 colon) of the same compound?
The TGI was > 100 µM.

What about the TGI (T-47D breast) of the same compound?
Its TGI is > 100 µM.
